Read-outs that look alike come from different tables or passages of the source.
Legend:
[1] = system: IRF-Lucia luciferase reporter (ISRE) in THP1-Dual cells; assay: THP1-Dual IRF-Lucia luciferase reporter assay (ISRE activation); type: cell-based, human; settings: Homo sapiens, THP1-Dual, read-out: THP1 IRF EC50
Protocol: THP1 Dual (InvivoGen) cell suspensions were cultured in RPMI 1640 (Hyclone, Logan, Utah) supplemented with 10% fetal bovine serum (Hyclone), 100 U/mL Normocin (Invivogen), and 50 U/mL PenStrep (Gibco, Dublin, Ireland) between a density of 7·10^5-2·10^6 cells/mL. Every other passage, media was supplemented with 5 U/mL Blasticidin and 100 U/mL Zeocin to maintain the expression constructs. White, flat-bottom 384-well plates (Greiner, Kremsmunster, Austria, 781080) were seeded with 2.5·10^4 cells/well in a total of 50 μL media containing 5 ng/mL phorbolmyristic acid (PMA) using a Matrix WellMate (Thermo Scientific) dispenser. After 48 hours of incubation at 37° C., media was removed using a BioTek ELx405 CW plate washer set to aspirate and wash each well three times with 65 μL 1×PBS. Plates were reloaded with 50 μL media without PMA and treatments added. Lipopolysaccharide in dimethylsulfoxide (DMSO) was transferred to control wells using a HP D300 microdispenser to a final concentration of 313 ng/mL. Compounds from chemical library plates were copied using a Sciclone (Caliper LifeSciences) mounted with a 384-pin transfer tool to obtain a final concentration of 10 μM. After incubation with treatments for 24 hours, 10 μL of supernatant media from each well was transferred into a white, flat-bottom 384-well plate for luminescence readout and a black-walled, clear flat-bottom 384-well plate for absorbance readout.
Specifically, to enable screening of novel chemical entities (NCEs) in a larger screening effort, a robust high-throughput cell-based assay system for primary hit identification of ISRE activators based on the above-mentioned target validation was desired. Human ISRE activity was verified using a THP-1 monocyte line containing the NF-κB-SEAP and IRF-Lucia luciferase dual reporter (THP1-Dual; Invivogen) that features two reporter genes, SEAP (secreted embryonic alkaline phosphatase) and Lucia luciferase, thereby enabling the simultaneous study of the NF-κB and IRF signalling pathways. The Lucia luciferase reporter is under the control of an ISG54 (interferon-stimulated gene) minimal promoter in conjunction with five IFN-stimulated response elements. The SEAP gene is driven by an IFN-β minimal promoter fused to five copies of the NF-κB consensus transcriptional response element and three copies of the c-Rel binding site. Both reporter proteins are readily measurable in the cell culture supernatant when using QUANTI-LUC™ and QUANTI-Blue SEAP detection reagents.
The responsiveness of the human THP-1 Dual cell line was evaluated in an array of assay conditions to obtain sensitive and reproducible results for the activation of IRF and NF-κB reporters. […] All transfer steps are fully automated using high throughput robotic equipment. Briefly, cells are seeded in differentiation medium using a Matrix WellMate fitted with the WellMate Stacker (Thermo Scientific) and incubated at 37° C. with 5% CO2 for 48 h. Following differentiation, cells are washed using a BioTek ELx405 Select CW plate washer and growth medium added with the Matrix WellMate. Programmed control treatments are added to wells using a D300 digital dispenser fitted with T8+ dispense heads (Hewlett Packard) designed to dispense nanoliter quantities of material. Compounds from library plates are added using a pin tool fitted to a Sciclone ALH 3000 Workstation (Caliper Life Sciences) programmed with Maestro v4.4. After treatment, plates are returned to incubators for 24 hours. To measure reporter expression, supernatant is collected using the Sciclone and dispensed into 2 plates: 1) a white 384-well assay plate for Lucia luminescence measurements and 2) a clear-bottom black 384-well assay plate for SEAP absorbance measurements.

[2] = THP1-Dual cytotoxicity (Cell Titer Glo, ATP); type: cell-based, human; settings: human, THP1-Dual cells, read-out: Thp1 cytotox CC50
Source text: FIG. 9C is a CC50 (50% cytotoxic concentration) graph of AV-C dependent IRF activation in THP1-Dual cells, determined with an 8-point dose response experiment. Cell viability was monitored based on quantitation of ATP present, as an indicator of metabolically active cells, where luminescence is proportional to the amount of ATP present, using Cell-Titer Glo (Promega).
(§1) The OTRADI Small Molecule Library of approximately 246,000 diverse compounds (see below for description) was screened using the THP1-Dual based HTS platform described above. All transfer steps in the screen are fully automated, thus reducing variability. Primary screening included a single data point or dose for each molecule. After data normalization was applied for each assay run, “hit” selection was performed on the plates that pass the quality control (QC) criterion. Hits were defined as samples having values above the activity cutoff determined based on noise level of the assay to reduce false positive rates. In the pilot study discussed above this activity value was >3σ above the ISRE mean with the added criteria of NFκB activation being lower than […] from the mean to identify IRF selective compounds. The ratio of ISRE:NFκB activity was also calculated as a selectivity index for prioritizing hit selection. Primary hits underwent secondary screening to determine the 50% effective concentration (EC50) and 50% cytotoxic concentration (CC50) of these agents using an 8-point dose-response curve in the human THP1-Dual cells. Cytotoxicity was measured in the plate using Cell Titer Glo (Promega). Identified candidate compounds were further screened (orthogonal screen) for cross species activity in the validated mouse J774-Dual assay using an 8-point dose-response format to determine EC50 and CC50 values as well as ISRE:NFκB ratios. A general process flow for the experimental design laid out above is depicted at FIG. 12.

[3] = system: IRF-Lucia luciferase reporter (ISRE) in J774-Dual cells; assay: J774-Dual IRF-Lucia luciferase reporter assay (ISRE activation); type: cell-based, mouse; settings: for EC50: Mus musculus, read-out: J774 IRF EC50
Protocol: First, optimal assay conditions and assay quality in 384-well format were determined. As mentioned, the mouse macrophage J774 cell line (J774-Dual, InvivoGen) stably transfected with the same inducible reporters described above (e.g., IRF-Lucia luciferase and NF-κB-SEAP) was used. The responsiveness of the J774-Dual cell line was investigated in an array of assay conditions to obtain sensitive and reproducible results for the activation of the IRF and NF-κB reporters. An optimal plating density and conditions for these cells was established for these cells in a 384-well format. Assay work-flow is similar to that discussed above for the THP1-Dual assay without a need for cell differentiation. Thus, cells are seeded directly in growth medium and incubated at 37° C. in a 5% C02 incubator for 24 hours prior to the programmed treatments being added as described herein.
The primary high throughput screen used the HTS platform of human THP1 monocyte cells containing the IRF-Lucia luciferase and NFκB-SEAP (secreted embryonic alkaline phosphatase) dual reporter (THP1-Dual, Invivogen), enabling the simultaneous study of the IRF and NFκB signaling pathways respectively. As discussed, the Lucia luciferase reporter gene is under the control of an ISG54 (interferon-stimulated gene) minimal promoter in conjunction with five interferon-stimulated response elements (ISRE). The SEAP gene is driven by an IFNβ minimal promoter fused to five copies of the NFκB consensus transcriptional response element and three copies of the c-Rel binding site. Both IRF-Lucia luciferase and NFκB-SEAP reporter proteins are secreted and readily measurable in the cell culture supernatant when using QUANTI-Luc™ and QUANTI-Blue™ detection reagents, respectively. Identified “hits” were confirmed in a secondary screen with an 8-point dose response curve. Hits were further screened for activity in the mouse using the mouse J774 macrophage-like cell line containing the identical reporter constructs (J774-Dual, Invivogen).
as §1

[4] = J774-Dual cytotoxicity; type: cell-based, mouse; settings: mouse, J774-Dual cells, read-out: J774 cytotox CC50
Protocol: The OTRADI Small Molecule Library of approximately 246,000 diverse compounds (see below for description) was screened using the THP1-Dual based HTS platform described above. All transfer steps in the screen are fully automated, thus reducing variability. Primary screening included a single data point or dose for each molecule. After data normalization was applied for each assay run, “hit” selection was performed on the plates that pass the quality control (QC) criterion. Hits were defined as samples having values above the activity cutoff determined based on noise level of the assay to reduce false positive rates. […] The ratio of ISRE:NFκB activity was also calculated as a selectivity index for prioritizing hit selection. Primary hits underwent secondary screening to determine the 50% effective concentration (EC50) and 50% cytotoxic concentration (CC50) of these agents using an 8-point dose-response curve in the human THP1-Dual cells. Cytotoxicity was measured in the plate using Cell Titer Glo (Promega). Identified candidate compounds were further screened (orthogonal screen) for cross species activity in the validated mouse J774-Dual assay using an 8-point dose-response format to determine EC50 and CC50 values as well as ISRE:NFκB ratios. A general process flow for the experimental design laid out above is depicted at FIG. 12.

[5] = Human Reporter Cell Line, 8-point dose response
[6] = J774, Mouse Reporter Cell Line, 8-point dose response
[7] = Mouse Reporter Cell Line J774, at peak
[8] = J774, Mouse Reporter Cell Line J774

Row | SMILES | EC50 [1, 5] [µM] | CC50 ([2]; Human Reporter Cell Line) [µM] | J774 IRF % activation at peak ([3]; Mouse Reporter Cell Line) [%] | EC50 [3, 6] [µM] | CC50 ([4]; Mouse Reporter Cell Line) [µM] | EC50 ([1]; Human Reporter Cell Line THP1) [µM] | CC50 ([2]; Human Reporter Cell Line THP1) [µM] | J774 IRF % activation at peak [3, 7] [%] | EC50 [3, 8] [µM] | CC50 ([4]; Mouse Reporter Cell Line J774) [µM]
1 | Cc1cccc(C(=O)Nc2ccc(N3CCN(C(=O)c4cccs4)CC3)cc2)c1C [NA-6] | 7.47 | > 25 | 22.78 | 13.1 | > 25 | – | – | – | – | –
2 | O=C(Nc1ccc(N2CCN(C(=O)c3cccs3)CC2)cc1)c1ccc2ccccc2c1 [NA-7] | 3.91 | > 25 | 5.638 | 4.36 | > 25 | – | – | – | – | –
3 | COc1ccc(NC(=O)c2cc(NC(=O)c3cccs3)ccc2N2CCOCC2)cc1Cl [NB-22] | – | – | – | – | – | 3.26 | > 25 | 24.91 | 65 | > 25
4 | COC(=O)COc1cccc(NC(=O)c2cccc(NC(=O)c3cccs3)c2)c1 [NC-4] | 9.88 | > 25 | 6.428 | ~5.88 | > 25 | – | – | – | – | –
5 | Cc1cc(C)c2c(N)c(C(=O)Nc3ccc4ccccc4c3)sc2n1 [ND-6] | – | – | – | – | – | 11.9 | 49.8 | 18.79 | ~7.27 | > 25
6 | Cc1cc2nc(-c3ccc(C)c(NC(=O)c4cccc([N+](=O)[O-])c4)c3)oc2cc1C [ND-36] | – | – | – | – | – | ~8.05 | > 25 | – | – | > 25
7 | COc1cc(C(=O)Nc2cc(-c3nc4ccccc4s3)ccc2C)cc(OC)c1OC [ND-37] | – | – | – | – | – | 11.8 | > 25 | – | – | > 25
8 | COc1ccc2nc(NC(=O)c3ccc(OC)c([N+](=O)[O-])c3)sc2c1 [ND-39] | – | – | – | – | – | 2.49 | > 25 | – | – | > 25
9 | COc1ccc(C(=O)Nc2cccc(-c3nc4ncccc4o3)c2)cc1[N+](=O)[O-] [ND-41] | – | – | – | – | – | 2.04 | > 25 | – | – | > 25
10 | COc1ccc(C(=O)Nc2ccc3oc(-c4cccnc4)nc3c2)cc1[N+](=O)[O-] [ND-43] | – | – | – | – | – | 5.1 | 20.3 | – | – | > 25
11 | COc1ccc(C(=O)Nc2cccc(-c3nc4cc(C)c(C)cc4o3)c2)cc1[N+](=O)[O-] [ND-46] | – | – | – | – | – | 3.22 | 13.1 | – | – | 27.9
12 | COc1ccc(C(=O)Nc2cc(-c3nc4cc(C)c(C)cc4o3)ccc2Cl)cc1[N+](=O)[O-] [ND-50] | – | – | – | – | – | ~11.9 | > 25 | – | – | > 25
13 | O=C(Nc1nc2ccc3scnc3c2s1)c1ccc2ccccc2c1 [ND-58] | – | – | – | – | – | 2.8 | > 25 | – | – | > 25
14 | COc1ccc(C(=O)Nc2cc(-c3nc4cc(C)c(C)cc4o3)ccc2C)cc1N [ND-60] | – | – | – | – | – | ~6.31 | > 25 | – | – | > 25
15 | Cc1ccc(-c2nc3ccccc3s2)cc1NC(=O)c1ccc(Cl)c([N+](=O)[O-])c1 [ND-64] | – | – | – | – | – | 7.27 | > 25 | – | – | > 25
16 | COc1c(Cl)cc(C(=O)Nc2cc(-c3nc4cc(C)c(C)cc4o3)ccc2C)cc1Cl [ND-69] | – | – | – | – | – | ~5.39 | > 25 | – | – | > 25
17 | Cc1cccc([C@H](C)c2cnc[nH]2)c1C [ND-76] | – | – | – | – | – | ~0.716 | > 25 | – | – | > 25
18 | Cc1ccc(-c2nc3cc(OCCCCl)ccc3o2)cc1[N+](=O)[O-] [ND-81] | – | – | – | – | – | – | > 25 | 23.19 | ~9.79 | > 25
19 | Cc1ccc(-c2nc3cc(OCCCN4CCCC4)ccc3o2)cc1N [ND-82] | – | – | – | – | – | – | > 25 | 22.57 | ~9.36 | > 25
20 | COc1ccc2oc(-c3ccc(C)c([N+](=O)[O-])c3)nc2c1 [ND-84] | – | – | – | – | – | ~19.6 | > 25 | – | – | > 25
21 | COc1ccc(-c2nc3cc(C(C)C)ccc3o2)cc1NC(=O)c1cc(C)cc(C)c1 [ND-91] | – | – | – | – | – | ~5.87 | > 25 | – | – | > 25
22 | COc1cc2nc(-c3ccccc3)nc(N3CCN(CCN4CCCC4)CC3)c2cc1OC [ND-98] | – | – | – | – | – | 3.03 | 18.1 | – | – | 19.3

Source: patent US20220395500A1, “SMALL MOLECULE ACTIVATORS OF INTERFERON REGULATORY FACTOR 3 AND METHODS OF USE THEREOF” (Neuralexo, Inc., priority 2020, published 2022)
